In article PMC5164944 (Biochemical pharmacology, 2016):
Read-outs that look alike come from different tables or passages of the source. Marks after values point to notes of the source that are not given here.

Columns and labels:
CYP2D6 [1] = target: T1, CYP2D6 (Homo sapiens, UniProt P10635); settings: from HepG2 Emax/EC50 and circulating concentrations, 300 mg/day bupropion
[2] = Media concentrations of bupropion and metabolites in plated human hepatocytes; settings: for concentration of metabolite formed in bupropion treated cells: plated human hepatocytes treated with bupropion 2.5 μM; for Cmedia at 72 hr: 1 hr incubation after 71 hours treatment; for Cmedia at 1 hr: after 1 hr incubation without pretreatment
CYP2D6 [3] = target: T1, CYP2D6; experiment: Static prediction of in vivo reversible CYP2D6 inhibition; settings: for share of the predicted CYP2D6 inhibition in vivo caused by the compound: reversible inhibition only
[4] = Partitioning into human suspension hepatocytes; settings: 1 μM, 30 min, total concentrations
[5] = Plasma protein binding by ultracentrifugation; type: in vitro ADME, human; settings: unbound fraction in plasma
[6] = Steady state plasma concentrations in subjects on chronic bupropion XL; settings: for Mean [I] (Range, n=5): 5 subjects, normalized to 300 mg/day bupropion dose
CYP2D6 [7] = target: T1, CYP2D6; experiment: CYP2D6 activity in plated human hepatocytes; settings: after 72 hr treatment
CYP2D6 mRNA [8] = experiment: CYP2D6 mRNA in plated human hepatocytes; settings: for mean CYP2D6 mRNA levels, % of vehicle treated cells: three donors, 72 hours
CYP2D6 mRNA [9] = experiment: CYP2D6 mRNA downregulation in HepG2 cells; settings: for EC50: read-out: EC50 of CYP2D6 mRNA downregulation, 72 hrs
CYP2D6 [10] = settings: cited from earlier work
CYP2D6 [11] = target: T1, CYP2D6; experiment: Reversible CYP2D6 inhibition in human liver microsomes; settings: for effect on CYP2D6 activity: 50 μM test concentration, HLM
[12] = tested on: CYP2D6 protein expression; experiment: CYP2D6 protein expression in HepG2 cells; settings: 72 hrs; for effect on CYP2D6 protein expression: erythrohydrobupropion 5 μM, threohydrobupropion 20 μM, R,R-OH-bupropion 20 μM
[13] = female, human, 2.5 μM
CYP2D6 mRNA [14] = experiment: in vitro; settings: human
CYP2D6 [15] = target: T1, CYP2D6; experiment: CYP2D6 inhibition in human suspension hepatocytes
CYP3A4 mRNA = CYP3A4 mRNA in plated human hepatocytes; type: cell-based; settings: 72 hours
[16] = cited from earlier work

T1 sequence (P10635 whole entry): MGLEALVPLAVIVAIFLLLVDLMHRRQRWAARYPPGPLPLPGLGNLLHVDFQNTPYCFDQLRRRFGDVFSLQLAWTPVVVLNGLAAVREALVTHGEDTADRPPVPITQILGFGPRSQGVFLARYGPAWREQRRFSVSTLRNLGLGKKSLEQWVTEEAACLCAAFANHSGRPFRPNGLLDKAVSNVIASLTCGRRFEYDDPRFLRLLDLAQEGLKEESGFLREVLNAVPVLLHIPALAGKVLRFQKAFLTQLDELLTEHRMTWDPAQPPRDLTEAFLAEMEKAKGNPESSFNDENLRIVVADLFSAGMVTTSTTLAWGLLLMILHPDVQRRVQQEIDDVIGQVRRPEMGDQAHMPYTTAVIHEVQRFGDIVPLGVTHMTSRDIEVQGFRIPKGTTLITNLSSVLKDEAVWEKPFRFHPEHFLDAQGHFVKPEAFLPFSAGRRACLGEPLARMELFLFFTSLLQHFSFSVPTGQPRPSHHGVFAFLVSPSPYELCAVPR

## C[C@H](NC(C)(C)C)[C@@H](O)c1cccc(Cl)c1 [Threo-hydrobupropion, threohydrobupropion]
CYP2D6 [1]
  predicted decrease in CYP2D6 mRNA if compound acted alone at steady state: 14%
[2]
  concentration of metabolite formed in bupropion treated cells: 1400 nM
[2]; plated human hepatocytes
  Cmedia at 72 hr: 8.2 ± 1.4 µM
  Cmedia at 1 hr: 7.1 ± 0.6 µM
CYP2D6 [3]
  share of the predicted CYP2D6 inhibition in vivo caused by the compound: approximately 21%
[4]
  cell concentration fold higher than medium: 11 fold
[5]
  fu,p (S.D. n=3): 1.0±0.1
[6]; average steady state plasma
  steady state concentration fold higher than erythrohydrobupropion: 7.2 fold
[6]; steady state plasma
  Mean [I] (Range, n=5): 2.1 (1.1–3.5) μM
CYP2D6 [7]
  Apparent Percent Inhibition at 72 hrs: 92 ± 2%
CYP2D6 mRNA [8]
  % decrease in CYP2D6 mRNA at 72 hrs: 82%
  mean CYP2D6 mRNA levels, % of vehicle treated cells: 18%
CYP2D6 mRNA [9]; 72 hrs
  maximum decrease in CYP2D6 mRNA: 78%
CYP2D6 mRNA [9]; based on EC50
  fold less potent in downregulating CYP2D6 mRNA than the other compounds: 10–50 fold
CYP2D6 mRNA [9]
  EC50: 9950 nM

## C[C@H](NC(C)(C)C)C(=O)c1cccc(Cl)c1 [S-Bupropion, S-bupropion, reference compound]
[5]
  fu,p (S.D. n=3): 0.6±0.1
[6]; steady state plasma
  Mean [I] (Range, n=5): 0.08 ^* (0.02–0.11) μM

## COc1ccc(C(CN(C)C)C2(O)CCCCC2)cc1 (stereo not shown) [venlafaxine]
CYP2D6 [10]
  fraction metabolized by CYP2D6 (fm): 80%

## C[C@H]1NC(C)(C)CO[C@]1(O)c1cccc(Cl)c1 [OH-bupropion, hydroxybupropion]
[2]
  concentration of metabolite formed in bupropion treated cells: 120 nM
[4]
  cell concentration fold higher than medium: 11 fold

## C[C@@H](NC(C)(C)C)C(=O)c1ccc(O)c(Cl)c1 [4′OH-bupropion, 4′-OH-bupropion]
[6]; steady state plasma
  Mean [I] (Range, n=5): 0.01 µM
CYP2D6 [11]
  effect on CYP2D6 activity: no effect

## C[C@@H]1NC(C)(C)CO[C@@]1(O)c1cccc(Cl)c1 [S,S-OH-bupropion]
[2]; plated human hepatocytes
  Cmedia at 72 hr: 1.5 ± 0.2 µM
  Cmedia at 1 hr: 1.3 ± 0.1 µM
[12]; 5 μM, western blot
  downregulation of CYP2D6 protein expression: > 50%
[5]
  fu,p (S.D. n=3): 0.5±0.1
[6]; steady state plasma
  circulating concentration fold higher than S-bupropion: ~3 fold
  circulating concentration fold lower than threohydrobupropion: about 6 fold
  Mean [I] (Range, n=5): 0.39 ^* (0.26–0.67) μM
CYP2D6 [7]
  Apparent Percent Inhibition at 72 hrs: 60 ± 11%
CYP2D6 mRNA [8]
  % decrease in CYP2D6 mRNA at 72 hrs: 74%
  mean CYP2D6 mRNA levels, % of vehicle treated cells: 26%
CYP2D6 mRNA [9]; 72 hrs
  maximum decrease in CYP2D6 mRNA: 85–88%
CYP2D6 mRNA [9]
  EC50: 200 nM

## C[C@@H](NC(C)(C)C)C(=O)c1cccc(Cl)c1 [R-Bupropion, R-bupropion, reference compound]
[5]
  fu,p (S.D. n=3): 0.5±0.1
[6]; steady state plasma
  Mean [I] (Range, n=5): 0.22 (0.05–0.34) μM

## CC(NC(C)(C)C)C(=O)c1cccc(Cl)c1 (stereo not shown) [Bupropion]
[13]; 71 h
  reduction of media concentration at the end of the pretreatment: 93%
[13]; 72 h
  Cmedia at 72 hr: 1.7 ± 0.5 µM
CYP2D6 mRNA [14]
  EC50 at 72 h: 210 nM
CYP2D6 [15]
  IC50: 13000 nM

## CC(NC(C)(C)C)C(O)c1ccc(O)c(Cl)c1 (stereo not drawn) [threo-4′OH-bupropion, threo-4′-OH-hydrobupropion]
CYP2D6 [11]
  effect on CYP2D6 activity: no effect

## C[C@H]1NC(C)(C)CO[C@]1(O)c1cccc(Cl)c1 [R,R-OH-bupropion]
[2]; plated human hepatocytes
  Cmedia at 72 hr: 19 ± 3 µM
  Cmedia at 1 hr: 16 ± 1 µM
[2]; plated human hepatocytes, versus initial media concentration added
  reduction of media concentration at the end of the pretreatment: 33%
CYP2D6 [3]
  fold higher I/Ki than S,S-OH-bupropion: 36 fold
  share of the predicted CYP2D6 inhibition in vivo caused by the compound: 65%
[12]
  effect on CYP2D6 protein expression: no effect
CYP3A4 mRNA
  change in CYP3A4 mRNA: significantly increased CYP3A4 mRNA
[5]
  fu,p (S.D. n=3): 0.5±0.1
[6]; steady state plasma
  steady state concentration ratio R,R-OH-bupropion / S,S-OH-bupropion: 13 fold
  Mean [I] (Range, n=5): 5.0 (3.0–9.4) μM
CYP2D6 [7]
  Apparent Percent Inhibition at 72 hrs: 83 ± 3%
CYP2D6 mRNA [8]
  % decrease in CYP2D6 mRNA at 72 hrs: 72%
  mean CYP2D6 mRNA levels, % of vehicle treated cells: 28%
[16]; single dose AUCs
  R,R-OH-bupropion to S,S-OH-bupropion ratio: 44–65
[16]; single dose of bupropion
  circulating concentration fold higher than bupropion and S,S-OH-bupropion: up to 65 fold
CYP2D6 [11]; based on IC50 values in HLM
  fold more potent CYP2D6 inhibitor than S,S-OH-bupropion: 3 fold
CYP2D6 mRNA [9]; 5-50 μM, 72 hrs
  effect on CYP2D6 mRNA: weakest effect

## CC(NC(C)(C)C)C(O)c1cccc(Cl)c1 (stereo not drawn) [Erythro-hydrobupropion, erythrohydrobupropion]
CYP2D6 [1]
  predicted decrease in CYP2D6 mRNA if compound acted alone at steady state: 18%
[2]
  concentration of metabolite formed in bupropion treated cells: 80 nM
[2]; plated human hepatocytes
  Cmedia at 72 hr: 2.1 ± 0.3 µM
  Cmedia at 1 hr: 1.6 ± 0.1 µM
CYP2D6 [3]
  share of the predicted CYP2D6 inhibition in vivo caused by the compound: 9%
[4]
  cell concentration fold higher than medium: 9 fold
[12]
  effect on CYP2D6 protein expression: slightly less effective
[5]
  fu,p (S.D. n=3): 0.7±0.1
[6]; steady state plasma
  circulating concentration fold higher than S-bupropion: ~3 fold
  circulating concentration fold lower than threohydrobupropion: about 6 fold
  Mean [I] (Range, n=5): 0.29 (0.19–0.41) μM
CYP2D6 [7]
  Apparent Percent Inhibition at 72 hrs: 93 ± 1%
CYP2D6 mRNA [8]
  % decrease in CYP2D6 mRNA at 72 hrs: 80%
  mean CYP2D6 mRNA levels, % of vehicle treated cells: 20%
CYP2D6 [11]; based on IC50 values in HLM
  fold more potent CYP2D6 inhibitor than threohydrobupropion: ~10 fold
CYP2D6 mRNA [9]; 72 hrs
  maximum decrease in CYP2D6 mRNA: 85%
CYP2D6 mRNA [9]
  EC50: 1110 nM

## CNCCCN1c2ccccc2CCc2ccccc21 [desipramine]
CYP2D6 [10]
  fraction metabolized by CYP2D6 (fm): 90%
